Measurements taken from publication PMC3764137, “Sulphamoylated 2-Methoxyestradiol Analogues Induce Apoptosis in Adenocarcinoma Cell Lines” (PLoS ONE, 2013).

Experiments:
Format in all cases: cell-based, human
HeLa cells [1] = experiment: Cell number determination by crystal violet staining; details: for cell growth: 24 h; for concentration that significantly inhibits HeLa proliferation: 24 h of exposure
Protocol: Crystal violet is a method used to determine the number of cells by staining the deoxyribonucleic acid (DNA). Gillies et al. (1986) used crystal violet to quantify cell number in monolayer cultures as a function of the absorbance of the dye taken up by the cells. A dose-dependent study was chosen with a concentration range of 0.1–25 μM since it was previously observed in our laboratory that this concentration series exerts antiproliferative activity in HeLa cells. Exponentially growing HeLa cells were seeded in 96 well tissue culture plates at a cell density of 5,000 cells per well. Cells were incubated at 37°C in a humidified atmosphere containing 5% CO2 for 24 h to allow for attachment. To establish the starting number of cells, a baseline determination was conducted before exposure. Subsequently, the medium was discarded and cells were exposed to the sulphamoylated 2ME2 analogues at a concentration series of 0.1–25 μM for the 24 h at 37°C. Vehicle-treated controls were also included. Cells were fixed with 100 µl of 1% gluteraldehyde (incubation for 15 min at room temperature). Gluteraldehyde was discarded and cells were stained using 100 µl 0.1% crystal violet (incubated at room temperature for 30 min). Excedent crystal violet was discarded and the 96 well plate was submersed under running water. Cells were solubilized using 200 µl 0.2% Triton X-100 and incubated at room temperature for 30 min. Solution (100 µl) was transferred to a new microtitre plate. Afterwards, the absorbance was determined at 570 nm using an ELx800 Universal Microplate Reader available from Bio-Tek Instruments Inc. (Vermont, United States of America).

caspase-8 = experiment: FLICE/caspase 8 colorimetric assay; details: 0.5 μM, 24 h
Protocol: (§1) Possible activation of caspase 3, -6 and -8 was investigated by means of caspase 3, caspase 6 and FLICE/caspase 8 colorimetric kits, respectively. Cells (1,000,000) were seeded with an overnight attachment policy. After 24 h of exposure to 0.5 μM of the sulphamoylated 2ME2 analogues, cells were detached with trypsin and centrifuged at 13,000× g. Cells (500,000) were resuspended in 50 µl of chilled cell lysis buffer and incubated on ice for 10 min. Cells were centrifuged at 10,000×g for a min. Supernatant was transferred to a fresh tube and put on ice. After determination of the protein concentration using the bicinchoninic acid (BCA) protein assay (Thermo Fisher Scientific, Johannesburg, South Africa), 100 µg protein/50 µl cell lysis buffer was mixed with 50 µl 2X reaction buffer (containing 10 mM Dithiothreitol (DTT)). Ac-Asp-Glu-Val-Asp-p-nitroanilide (Ac-DEVD-pNA) (5 µl of 4 mM) (caspase-3-specific substrate), or 5 µl 4 mM […] (Ac-VEID-pNA) (caspase-6-specific substrate), or 5 µl 4 mM Ac-Ile-Glu-Thr-Asp-p-nitroanilide (Ac-IETD-pNA) (caspase-8-specific substrate) was added and the mixture was incubated at 37°C for 120 min (200 µM final concentration). Absorbance was determined at 405 nm on the ELx800 Universal Microplate Reader available from Bio-Tek Instruments Inc. (Vermont, United States of America).

HeLa cells [2] = experiment: Cytochrome c release (FlowCellect, flow cytometry); details: 0.5 μM analogues (2-methoxyestradiol-bis-sulphamate 0.55 μM), 24 h
Protocol: (§2) This kit utilizes a unique set of buffers that selectively permeabilizes the […] without affecting the mitochondrial membrane. […] Cells (500,000) were seeded with an overnight attachment policy. After 24 h of exposure to 0.5 μM of the sulphamoylated 2ME2 analogues, cells were detached using trypsin and centrifuged at 13,000×g. Cells (500,000) were resuspended in PBS, centrifuged and resuspended in permeabilization buffer (according to supplier's instructions) for 10 min on ice. Subsequently cells were centrifuged, resuspended in 100 µl fixation buffer (according to supplier's instructions) for 20 min at room temperature, centrifuged again and resuspended in blocking buffer (150 µl). After another centrifugation step, cells were centrifuged and resuspended in blocking buffer (twice). Anti-cytochrome c-FITC (10 µl) was added to each sample and samples were incubated for 30 min at room temperature. Cells were centrifuged and blocking buffer (100 µl) was added. After centrifugation, blocking buffer (200 µl) was added to the samples for analysis via flow cytometry (FC500 System flow cytometer, Beckman Coulter South Africa (Pty) Ltd). Cells presenting with cytochrome c release were detected in the fluorescein isothiocyanate (FITC) channel (FL1) showing diffused green fluorescence. Data from at least 10 000 cells were analyzed by means of Cyflogic version 1.2.1 software (Pertu Therho, Turko, Finland).

MDA-MB-231 cells = experiment: Cytochrome c release (FlowCellect, flow cytometry); details: MDA-MB-231, 0.5 μM analogues (2-methoxyestradiol-bis-sulphamate 0.55 μM), 24 h
Protocol: as §2

HeLa cells [3] = experiment: Cytotoxicity: lactate dehydrogenase assay; details: 24 h, compared to vehicle-treated cells
Protocol: Lactate dehydrogenase (LDH) is a soluble cytosolic enzyme that catalyzes the interconversion of lactate and pyruvate. Cells release LDH during injury or cell damage, following the loss of membrane integrity consequential from either apoptosis or necrosis. LDH activity can therefore be used as an indicator of cell membrane integrity and serves as a general mean to assess for cytotoxicity resulting from exposure to chemical compounds. Cells were seeded in 96 well plates at a cell density of 5,000 cells per well (incubated at 37°C at 5% CO2). After 24 h, cells were exposed to 0.1–25 μM sulphamoylated 2ME2 analogues including vehicle-treated controls and incubated for 24 h at 37°C. Subsequently, the 200 μl medium was transferred and centrifuged at 5,000 rpm for 10 min. Supernatant (10 μl) was then transferred to an optimally clear 96 well plate. LDH reaction mix (100 μl mixed according to the supplier's manual instructions) was added to the medium. After 90 min incubation at room temperature, the absorbance was read at 460 nm (reference wavelength of 630 nm) with an ELx800 Universal Microplate Reader from Bio-Tek Instruments Inc. (Vermont, United States of America).

HeLa cells [4] = experiment: Cell morphology by transmission electron microscopy; details: 24 h; for cell shrinkage (TEM): compared to vehicle-treated cells
Protocol: The in vitro influence of ESE-15-one, EMBS and ESE-16 on cell morphology was determined after exposure for 24 h using transmission electron microscopy (TEM). […] After each fixation step the samples were rinsed 3 times in 0.0075 M sodium phosphate buffer (pH 7.4). Samples were dehydrated using increasing concentrations of ethanol (30%, 50%, 70%, 90%, and 3×100%) and embedded in Quetol resin, sectioned with a microtome and placed on copper discs. Sections were contrasted with 4% aqueous uranyl acetate and Reynolds' lead citrate and viewed with a JOEL JEM 2100F transmission electron microscope (Electron Microscopy Unit, University of Pretoria, South Africa).

caspase 3 = experiment: Caspase 3 colorimetric assay in HeLa cells; details: 0.5 μM, 24 h
Protocol: as §1

[5] = 0.5 µM, compared to vehicle-treated cells

Row | SMILES | cell growth (HeLa cells [1]; 0.1 µM) | cell growth (HeLa cells [1]; [5]) | cell growth (HeLa cells [1]; 5 µM and 10 µM) | concentration that significantly inhibits HeLa proliferation (HeLa cells [1]) | caspase-8 activity increase compared to vehicle-treated cells (caspase-8) | Cytochrome c in cytoplasm (cells with cytochrome c release) (HeLa cells [2]) | Cytochrome c in cytoplasm (cells with cytochrome c release) (MDA-MB-231 cells) | LDH levels / LDH release (HeLa cells [3]) | cell debris (TEM) (HeLa cells [4]) | vacuoles (TEM) (HeLa cells [4]) | cell shrinkage (TEM) (HeLa cells [4]) | caspase 3 activity compared to vehicle-treated cells (caspase 3) | apoptotic bodies (TEM) (HeLa cells [4])
1 | CCc1cc2c(cc1OS(N)(=O)=O)CC[C@@H]1C2CC[C@]2(C)[C@@H](OS(N)(=O)=O)CC[C@@H]12 (stereo partly drawn) [EMBS, (8R, 13S, 14S, 17S)-2-ethyl-13-methyl-7,8,9, 11, 12,13, 14, 15, 16, 17-decahydro-6H-cyclopenta [a] phenanthrane-3, 17-diyl bis (sulphamate)] | 92.32% | 40.01% | slight decrease in cell growth | 0.5 µM | 2.6 fold | 21–23% | 21–23% | No statistically significant increase in LDH levels | Cell debris was observed | vacuoles | shrunken | more than doubled | –
2 | CCc1cc2c(cc1OS(N)(=O)=O)CC[C@@H]1[C@@H]2CC[C@]2(C)C(=O)C=C[C@@H]12 [ESE-15-one, 2-Ethyl-3-O-sulphamoyl-estra-1,3,5 (10) 15-tetraene-3-ol-17one] | 80.31% | 40.87% | slight decrease in cell growth | 0.5 µM | 1.7 fold | 35% | 34% | No statistically significant increase in LDH levels | – | vacuoles | shrunken | more than doubled | Apoptotic bodies were observed
